Data from US20080188473A1, “Indoles Useful in the Treatment of Inflammation” (priority 2004, published 2008).

Biological target: T1, human mPGES-1 (Homo sapiens, UniProt O14684)
T1 construct: made in house; host or cells: E. coli (membrane fraction)
T1 sequence (O14684 1-152): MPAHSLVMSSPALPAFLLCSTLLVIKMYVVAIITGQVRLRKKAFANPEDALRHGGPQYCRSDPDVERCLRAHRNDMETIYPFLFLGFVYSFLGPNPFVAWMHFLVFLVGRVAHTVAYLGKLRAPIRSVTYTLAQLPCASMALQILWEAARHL
Test: mPGES-1 inhibition assay (conversion of PGH2 to PGE2, HPLC analysis)
Format: biochemical
Settings: human mPGES-1 expressed in E. coli, membrane fraction; 25 min preincubation with inhibitor, PGH2 substrate 60 seconds, room temperature; read-out: concentration at which 50% inhibition of mPGES-1 was observed
Procedure: In the assay human mPGES-1 catalyses the reaction where the substrate PGH2 is converted to PGE2. mPGES-1 is expressed in E. coli and the membrane fraction is dissolved in 20 mM NaPi-buffer pH 8.0 and stored at −80° C. […] The stop solution consists of H2O/MeCN (7/3), containing FeCl2 (25 mM) and HCl (0.15 M). The assay is performed at room temperature in 96-well plates.
The following is added chronologically to each well: • 1. 100 μL human in PGES-1 in KPi-buffer with glutathione. Total protein concentration: 0.02 mg/mL. • 2. 1 μL inhibitor in DMSO. Incubation of the plate at room temperature for 25 minutes. • 3. 4 μL of a 0.25 mM PGH2 solution. Incubation of the plate at room temperature for 60 seconds. • 4. 100 μL stop solution. • 180 μL per sample is analyzed with HPLC.

IC50 [µM]	Compound
0.73	CC(C)Oc1ccc(-n2c(C(=O)O)c(N3CCOCC3)c3cc(-c4ccc(C(F)(F)F)cc4)ccc32)cc1 [Example 7, 1-(4-Isopropoxyphenyl)-3-(4-morpholino)-5-(4-(trifluoromethyl)phenyl)-indole-2-carboxylic acid]
5.3	CC(=O)N(C)c1c(C(=O)O)n(-c2ccc(OC(C)C)cc2)c2ccc(-c3ccc(C(F)(F)F)cn3)cc12 [Example 12, 3-(Acetylmethylamino)-1-(4-isopropoxyphenyl)-5-(5-trifluoromethyl-pyridin-2-yl)-1H-indole-2-carboxylic acid]
1.7	CC(C)Oc1ccc(-c2ccc3c(c2)c(NS(C)(=O)=O)c(C(=O)O)n3-c2ccc(OC(C)C)cc2)cc1 [Example 3, 1,5-Bis(4-isopropoxyphenyl)-3-(methylsulfonamido)indole-2-carboxylic acid]
0.19	CC(C)Oc1ccc(-n2c(C(=O)O)c(NC(=O)c3cccnc3)c3cc(-c4ccc(C(F)(F)F)cn4)ccc32)cc1 [Example 13, 1-(4-Isopropoxyphenyl)-3-nicotinamide-5-(5-trifluoromethylpyridin-2-yl)-1H-indole-2-carboxylic acid]

Compound	IC50 [µM]
CC(=O)Nc1c(C(=O)O)n(-c2ccc(OC(C)C)cc2)c2ccc(-c3ccc(OC(C)C)cc3)cc12 [Example 1, 3-Acetamido-1,5-bis(4-isopropoxyphenyl)-indole-2-carboxylic acid]	3.1
